Reference: patent EP1061897B1, “GLYCYLGLYCINE OLEAMIDE IN DERMO-COSMETOLOGY” (Pierre Fabre Dermo-Cosmetique, priority 1998, dated 1999)
Residues, ends and D or L forms follow the SMILES beside them. *: point of attachment. Oleoyl = CCCCCCCC/C=C\CCCCCCCC(=O)*

Columns and labels:
fibroblastes = test: Bell-type dermal equivalent, contraction kinetics of fibroblast-seeded collagen lattice; format: cell-based; settings: followed over 7 days; 0,005 % oléamide de glycylglycine, 0,003 % acide oléique, 0,002 % gly-gly; figure 3
Text: Pour objectiver cette activité, on utilise le modèle cellulaire de derme équivalent de type Bell. Il permet, grâce à une mise en culture de fibroblastes sur un support de collagène, de reproduire in vitro une structure tissulaire tridimensionnelle et de rendre compte des interactions fibroblaste-matrice, le fibroblaste étant impliqué dans le maintien de la structure dermique.
La capacité des fibroblastes, ensemencés dans un milieu défini avec ou sans actif, à organiser les fibres de collagène les unes par rapport aux autres et de les faire se rétracter, se concrétise par une diminution de surface de ce derme. Ce test traduit la capacité du fibroblaste à modeler, par ce biais, un véritable tissu. On suit donc la cinétique de contraction de ce derme sur 7 jours, cette cinétique étant liée au métabolisme de la cellule.
Les concentrations en actifs employées correspondent à des doses auxquelles ces actifs se sont avérés non cytotoxiques et non prolifératifs.

élastase = test: in vitro acellular anti-elastase test, elastase diffusion in agarose gel containing orcein-stained insoluble elastin; format: biochemical; settings: figure 2
Text: La méthode utilisée est une technique in vitro acellulaire, basée sur la diffusion d'élastase dans un gel d'agarose contenant de l'élastine insoluble colorée par l'orcéïne et dispersée dans le gel avec ou sans principe actif. La lecture du diamètre de lyse permet de calculer le pourcentage d'inhibition de l'enzyme par le principe actif.

collagène de type I = test: in vitro acellular glycation of type I collagen, thiobarbituric acid assay; format: biochemical; settings: glucose 250 mM, 37°C, 8 days, figure 1
Protocol: L'activité inhibitrice de la glycylglycine est évaluée et comparée à celle de l'aminoguanidine en utilisant un modèle in vitro, acellulaire, de glycation du collagène de type I, selon le protocole suivant.
L'actif anti-glyquant est introduit dans une solution contenant du glucose 250 mM et du collagène de type I. L'aminoguanidine agit notamment en bloquant le groupement carbonyle du produit d'Amadori, stoppant ainsi la glycation à son stade précoce (M. Brownlee et coll., Science, 1986 (6), 232, 1629-1632).
Le mélange est incubé à 37°C pendant 8 jours puis le glucose non fixé est éliminé par dialyse. Après lyophilisation du collagène, on procède à un dosage à l'acide thiobarbiturique pour déterminer le taux de glycation.
Cette méthode permet le dosage de sucres liés aux cétoamines.
Le lyophilisat, après être pesé, est dissous dans l'acide oxalique 0,5 M. On laisse incuber à 120°C pendant 1 heure, puis à 40°C pendant 45 min après avoir ajouté de l'acide thiobarbiturique à 50 mM.
La densité optique du mélange, lue à 443 nm, est proportionnelle au taux de glycation exprimé en nmoles HMF formé par mg de lyophilisat.

Row | Compound | cinétique de rétraction (pourcentage de rétraction) (fibroblastes) | activité anti-élastase (aire de lyse) (élastase) | activité anti-glyquante (taux de glycation, nmoles HMF/mg) (collagène de type I; at 100 mM, compared with aminoguanidine) | activité anti-glyquante (taux de glycation, nmoles HMF/mg) (collagène de type I; 1 mM, 10 mM and 100 mM)
1 | CCCCCCCC/C=C\CCCCCCCC(=O)NCC(=O)NCC(=O)O [oléamide de glycylglycine] (Oleoyl-Gly-Gly-OH) | plus efficace que l'acide oléique, l'association acide oléique/glycylglycine, la glycylglycine | activité anti-élastase importante |  | 
2 | NCC(=O)NCC(=O)O [glycylglycine] (H-Gly-Gly-OH) |  |  | activité équivalent à celle de l'aminoguanidine | avec un effet-dose
